# Source: the supplement of paper PMC10307832
# Experiments:
# Assay in all cases: relative viability (nuclei count vs DMSO), 5 days (fraction); higher = more cells survive
# [1] = compound: CC1=CC(=CC=C1)NC2=NC(=CS2)C3=CC=NC=C3 + CC1(C)CCC(c2ccc(Cl)cc2)=C(CN2CCN(c3ccc(C(=O)NS(=O)(=O)c4ccc(N[C@H](CCN5CCOCC5)CSc5ccccc5)c(S(=O)(=O)C(F)(F)F)c4)cc3)CC2)C1 [Navitoclax] (partner 0.5 µM)
# Method in brief: (§1)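 Relative viability equals treated-well nuclei counts divided by vehicle-well nuclei counts. Counts came from 4× images of lung cancer cell lines grown in 1536-well plates for 5 days after pin-tool dosing on the day after seeding. Dosing used one drug alone or a fixed anchor-drug dose plus five library-drug doses (not always all listed) in √10 steps, and values are medians of duplicate plates.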
# [2] = compound: CC1=CC(=CC=C1)NC2=NC(=CS2)C3=CC=NC=C3 + COc1cccc2cc(-c3nc([C@H]4CC[C@H](C(=O)O)CC4)n4ncnc(N)c34)[nH]c12 [OSI-027] (partner 0.5 µM)
# Method in brief: as §1
# [3] = compound: Cc1ccc(NC(=O)c2ccc(CN3CCN(C)CC3)cc2)cc1Nc1nc(-c2cccnc2)cs1 [Masitinib] + CC1(C)CCC(c2ccc(Cl)cc2)=C(CN2CCN(c3ccc(C(=O)NS(=O)(=O)c4ccc(N[C@H](CCN5CCOCC5)CSc5ccccc5)c(S(=O)(=O)C(F)(F)F)c4)cc3)CC2)C1 [Navitoclax] (partner 0.5 µM)
# Method in brief: as §1
# [4] = compound: Cc1ccc(NC(=O)c2ccc(CN3CCN(C)CC3)cc2)cc1Nc1nc(-c2cccnc2)cs1 [Masitinib] + CS(=O)(=O)CCNCc1ccc(-c2ccc3ncnc(Nc4ccc(OCc5cccc(F)c5)c(Cl)c4)c3c2)o1 [Lapatinib] (partner 2 µM)
# Method in brief: as §1
cell line,measurement,setting,value
UMC-11,relative viability,[1]; first compound 0.08 µM,0.281
same,relative viability,[1]; first compound 0.253 µM,0.266
same,relative viability,[1]; first compound 0.8 µM,0.295
same,relative viability,[1]; first compound 2.53 µM,0.348
same,relative viability,[1]; first compound 8 µM,0.478
same,relative viability,[2]; first compound 0.08 µM,0.448
same,relative viability,[2]; first compound 0.253 µM,0.512
same,relative viability,[2]; first compound 0.8 µM,0.469
same,relative viability,[2]; first compound 2.53 µM,0.461
same,relative viability,[2]; first compound 8 µM,0.443
same,relative viability,[3]; first compound 0.01 µM,0.286
same,relative viability,[3]; first compound 0.03162 µM,0.321
same,relative viability,[3]; first compound 0.1 µM,0.353
same,relative viability,[3]; first compound 0.3162 µM,0.338
same,relative viability,[3]; first compound 1 µM,0.353
same,relative viability,[4]; first compound 0.01 µM,0.82
same,relative viability,[4]; first compound 0.03162 µM,0.914
same,relative viability,[4]; first compound 0.1 µM,0.979
same,relative viability,[4]; first compound 0.3162 µM,1.06
same,relative viability,[4]; first compound 1 µM,1.05
